Data: patent US20080176862A1, “New Compounds 617” (ASTRAZENECA AB, priority 2006, published 2008)
Counter-ions that a name gives are not always drawn.

What follows are molecules tested against T1, human β-Secretase (soluble part, AA1-AA460; sBACE-Fc) (Homo sapiens, UniProt P56817) (assay: TR-FRET assay). Details: substrate (Europium)CEVNLDAEFK(Qsy7) 100 nM, pH 4.5, 15 min at RT; read-out: IC50 (nM) in TR-FRET assay.
T1 construct: The soluble part of the human β-Secretase (AA1-AA460) was cloned into the ASP2-Fc10-1-IRES-GFP-neoK mammalian expression vector; made in house
Assay type: biochemical
Protocol: The enzyme used in the IGEN Cleavage-, Fluorescent-, TR-FRET- and BiaCore assays is described as follows:
The soluble part of the human β-Secretase (AA1-AA460) was cloned into the ASP2-Fc10-1-IRES-GFP-neoK mammalian expression vector. The gene was fused to the Fc domain of IgG1 (affinity tag) and stably cloned into HEK 293 cells. Purified sBACE-Fc is stored in Tris buffer, pH 9.2 and has a purity of 95%.
Enzyme was diluted to 6 μg/mL and the substrate (Europium)[…](Qsy7) to 200 nM in reaction buffer (NaAcetate, chaps, triton x-100, EDTA pH 4.5). Compounds were diluted to the desired concentration in dimethyl sulfoxide (final dimethyl sulfoxide concentration in assay is 5%). […] Enzyme (9 μL) and 1 μL of compound in dimethyl sulfoxide was added to the plate, mixed and pre-incubated for 10 min. Substrate (10 μL) was added and the reaction proceeded in the dark for 15 min at RT. The reaction was stopped with the addition of 7 μL NaAcetate, pH 9. The fluorescence of the product was measured on a Victor II plate reader with an excitation wavelength of 340 nm and an emission wavelength of 615 nm. […] The dimethyl sulfoxide control defined the 100% activity level and 0% activity was defined by exclusion of the enzyme (using reaction buffer instead).

T1 sequence (P56817 22-460): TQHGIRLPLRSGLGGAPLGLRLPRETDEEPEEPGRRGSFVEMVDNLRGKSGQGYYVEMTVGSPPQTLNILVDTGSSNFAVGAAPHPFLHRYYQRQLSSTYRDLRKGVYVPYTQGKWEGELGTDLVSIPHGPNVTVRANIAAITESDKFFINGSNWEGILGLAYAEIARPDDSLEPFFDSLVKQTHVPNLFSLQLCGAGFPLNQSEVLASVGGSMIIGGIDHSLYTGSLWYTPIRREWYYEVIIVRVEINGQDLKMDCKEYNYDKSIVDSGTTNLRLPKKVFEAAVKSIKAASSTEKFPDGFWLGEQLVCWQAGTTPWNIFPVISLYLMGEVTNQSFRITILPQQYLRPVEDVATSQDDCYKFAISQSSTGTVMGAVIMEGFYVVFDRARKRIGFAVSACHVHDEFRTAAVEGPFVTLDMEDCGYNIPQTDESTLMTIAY

**Q.** How did the IC50 turn out when `CN1C(=O)C(c2cccc(OS(=O)(=O)c3ccc(-n4cccn4)cc3)c2)(c2ccc(F)c(-c3cncnc3)c2)N=C1N` (centres unmarked) [Example 238, 3-[2-Amino-4-(4-fluoro-3-pyrimidin-5-ylphenyl)-1-methyl-5-oxo-4,5-dihydro-1H-imidazol-4-yl]phenyl 4-(1H-pyrazol-1-yl)benzenesulfonate] was run?
**A.** 46 nM

**Q.** With `COc1cccc(-c2cc(C3(c4ccc(OS(C)(=O)=O)cc4)N=C(N)N(C)C3=O)ccn2)c1` (centres unmarked) [Example 39, 4-{2-Amino-4-[2-(3-methoxyphenyl)pyridin-4-yl]-1-methyl-5-oxo-4,5-dihydro-1H-imidazol-4-yl}phenyl methanesulfonate 0.25 acetate] as the molecule, how does the IC50 read?
**A.** 365 nM

**Q.** How did the IC50 turn out when `CN1C(=O)C(c2ccc(OS(C)(=O)=O)cc2)(c2cncc(-c3cccnc3F)c2)N=C1N` (centres unmarked) [Example 22, 4-[2-amino-4-(2′-fluoro-3,3′-bipyridin-5-yl)-1-methyl-5-oxo-4,5-dihydro-1H-imidazol-4-yl]phenyl methanesulfonate 0.5 acetate] was run?
**A.** 1650 nM

**Q.** Which IC50 does the source give for `CCN1C(=O)C(c2ccc(OS(C)(=O)=O)cc2)(c2ccc(F)c(-c3cncnc3)c2)N=C1N` (centres unmarked) [Example 162, 4-[2-Amino-4-(4-fluoro-3-pyrimidin-5-ylphenyl)-1-ethyl-5-oxo-4,5-dihydro-1H-imidazol-4-yl]phenyl methanesulfonate] here?
**A.** 682 nM

**Q.** Which IC50 does the source give for `COc1cc(OS(C)(=O)=O)cc(-c2cccc(C3(c4ccc(OC)c(C(F)(F)F)c4)N=C(N)N(C)C3=O)c2)c1` (centres unmarked) [Example 60, 3′-{2-Amino-4-[4-methoxy-3-(trifluoromethyl)phenyl]-1-methyl-5-oxo-4,5-dihydro-1H-imidazol-4-yl}-5-methoxybiphenyl-3-yl methanesulfonate] here?
**A.** 25 nM

**Q.** `CCC(C)(C)c1ccc(S(=O)(=O)Oc2ccc(C3(c4ccc(F)c(-c5cccnc5)c4)N=C(N)N(C)C3=O)cc2)cc1` (centres unmarked) [Example 281, 4-[2-Amino-4-(4-fluoro-3-pyridin-3-ylphenyl)-1-methyl-5-oxo-4,5-dihydro-1H-imidazol-4-yl]phenyl 4-(1,1-dimethylpropyl)benzenesulfonate] was tested. Which IC50 did it give?
**A.** 79 nM

**Q.** How did the IC50 turn out when `CN1C(=O)C(c2cccc(OS(=O)(=O)c3c(F)cccc3F)c2)(c2ccc(F)c(Br)c2)N=C1N` (centres unmarked) [Example 225, 3-[2-Amino-4-(3-bromo-4-fluorophenyl)-1-methyl-5-oxo-4,5-dihydro-1H-imidazol-4-yl]phenyl 2,6-difluorobenzenesulfonate] was run?
**A.** 633 nM

**Q.** How did the IC50 turn out when `CN1C(=O)C(c2cccc(OS(=O)(=O)c3cn(C)cn3)c2)(c2ccc(F)c(Br)c2)N=C1N` (centres unmarked) [Example 232, 3-[2-Amino-4-(3-bromo-4-fluorophenyl)-1-methyl-5-oxo-4,5-dihydro-1H-imidazol-4-yl]phenyl 1-methyl-1H-imidazole-4-sulfonate] was run?
**A.** 594 nM

**Q.** With `CC(C)S(=O)(=O)Oc1cccc(C2(c3ccc(F)c(-c4cccc(Cl)c4)c3)N=C(N)N(C)C2=O)c1` (centres unmarked) [Example 106, 3-[2-Amino-4-(3′-chloro-6-fluorobiphenyl-3-yl)-1-methyl-5-oxo-4,5-dihydro-1H-imidazol-4-yl]phenyl propane-2-sulfonate] as the molecule, how does the IC50 read?
**A.** 363 nM

**Q.** How did the IC50 turn out when `CN1C(=O)C(c2cccc(OS(C)(=O)=O)c2)(c2cccc(-c3cnccc3Cl)c2)N=C1N` (centres unmarked) [Example 170, 3-{2-Amino-4-[3-(4-chloropyridin-3-yl)phenyl]-1-methyl-5-oxo-4,5-dihydro-1H-imidazol-4-yl}phenyl methanesulfonate hydrochloride] was run?
**A.** 651 nM

**Q.** For `COc1ccc(C#N)c(-c2cc(C3(c4cccc(OS(C)(=O)=O)c4)N=C(N)N(C)C3=O)ccc2F)c1` (centres unmarked) [Example 177, 3-[2-Amino-4-(2′-cyano-6-fluoro-5′-methoxybiphenyl-3-yl)-1-methyl-5-oxo-4,5-dihydro-1H-imidazol-4-yl]phenyl methanesulfonate hydrochloride], which IC50 is on record?
**A.** 100 nM

**Q.** `Cc1nn(C)c(Cl)c1S(=O)(=O)Oc1cccc(C2(c3ccc(F)c(-c4cncnc4)c3)N=C(N)N(C)C2=O)c1` (centres unmarked) [Example 241, 3-[2-Amino-4-(4-fluoro-3-pyrimidin-5-ylphenyl)-1-methyl-5-oxo-4,5-dihydro-1H-imidazol-4-yl]phenyl 5-chloro-1,3-dimethyl-1H-pyrazole-4-sulfonate] was tested. Which IC50 did it give?
**A.** 20 nM

**Q.** `CN1C(=O)C(c2ccc(OC(F)F)cc2)(c2cccc(-c3cc(Cl)cc(OS(C)(=O)=O)c3)c2)N=C1N` (centres unmarked) [Example 64, 3′-{2-Amino-4-[4-(difluoromethoxy)phenyl]-1-methyl-5-oxo-4,5-dihydro-1H-imidazol-4-yl}-5-chlorobiphenyl-3-ylmethanesulfonate] was tested. Which IC50 did it give?
**A.** 28 nM

**Q.** `CN1C(=O)C(c2ccc(OS(C)(=O)=O)cc2)(c2ccc(F)c(-c3cnccc3Cl)c2)N=C1N` (centres unmarked) [Example 169, 4-{2-amino-4-[3-(4-chloropyridin-3-yl)-4-fluorophenyl]-1-methyl-5-oxo-4,5-dihydro-1H-imidazol-4-yl}phenyl methanesulfonate hydrochloride] was tested. Which IC50 did it give?
**A.** 171 nM

**Q.** How did the IC50 turn out when `CN1C(=O)C(c2cccc(OS(=O)(=O)N(C)C)c2)(c2ccc(F)c(-c3cccnc3F)c2)N=C1N` (centres unmarked) [Example 110, 3-{2-Amino-4-[4-fluoro-3-(2-fluoropyridin-3-yl)phenyl]-1-methyl-5-oxo-4,5-dihydro-1H-imidazol-4-yl}phenyldimethylsulfamate] was run?
**A.** 114 nM

**Q.** Which IC50 does the source give for `CN1C(=O)C(c2ccc(OS(=O)(=O)c3ccccc3)cc2)(c2ccc(F)c(-c3cncnc3)c2)N=C1N` (centres unmarked) [Example 185, 4-[2-Amino-4-(4-fluoro-3-pyrimidin-5-ylphenyl)-1-methyl-5-oxo-4,5-dihydro-1H-imidazol-4-yl]phenyl benzenesulfonate hydrochloride] here?
**A.** 19 nM

**Q.** Which IC50 does the source give for `CN1C(=O)C(c2cccc(OS(=O)(=O)c3ccc4c(c3)CCC4)c2)(c2ccc(F)c(-c3cncnc3)c2)N=C1N` (centres unmarked) [Example 239, 3-[2-Amino-4-(4-fluoro-3-pyrimidin-5-ylphenyl)-1-methyl-5-oxo-4,5-dihydro-1H-imidazol-4-yl]phenyl indane-5-sulfonate] here?
**A.** 19 nM

**Q.** How did the IC50 turn out when `CN1C(=O)C(c2ccc(OS(=O)(=O)C(F)(F)F)cc2)(c2ccc(F)c(-c3cc(Cl)ccn3)c2)N=C1N` (centres unmarked) [Example 149, 4-{2-Amino-4-[3-(4-chloropyridin-2-yl)-4-fluorophenyl]-1-methyl-5-oxo-4,5-dihydro-1H-imidazol-4-yl}phenyl trifluoromethanesulfonate 0.75 acetate] was run?
**A.** 163 nM

**Q.** `CN1C(=O)C(c2cccc(OS(C)(=O)=O)c2)(c2ccc(F)c(-c3cccc(Cl)c3)c2)N=C1N` (centres unmarked) [Example 91, 3-[2-Amino-4-(3′-chloro-6-fluorobiphenyl-3-yl)-1-methyl-5-oxo-4,5-dihydro-1H-imidazol-4-yl]phenyl methanesulfonate] was tested. Which IC50 did it give?
**A.** 228 nM

**Q.** Which IC50 does the source give for `CN1C(=O)C(c2ccc(OS(=O)(=O)C(F)(F)F)cc2)(c2ccc(F)c(-c3cccnc3)c2)N=C1N` (centres unmarked) [Example 141, 4-[2-Amino-4-(4-fluoro-3-pyridin-3-ylphenyl)-1-methyl-5-oxo-4,5-dihydro-1H-imidazol-4-yl]phenyl trifluoromethanesulfonate 0.5 acetate] here?
**A.** 107 nM

**Q.** How did the IC50 turn out when `CN1C(=O)C(c2cccc(OS(C)(=O)=O)c2)(c2ccc(F)c(C3=CCCC3)c2)N=C1N` (centres unmarked) [Example 194, 3-[2-Amino-4-(3-cyclopent-1-en-1-yl-4-fluorophenyl)-1-methyl-5-oxo-4,5-dihydro-1H-imidazol-4-yl]phenyl methanesulfonate hydrochloride] was run?
**A.** 284 nM

**Q.** For `COc1ccc(C2(c3ccc(F)c(-c4cncnc4)c3)N=C(N)N(C)C2=O)cc1OS(=O)(=O)C(F)(F)F` (centres unmarked) [Example 14, 5-[2-Amino-4-(4-fluoro-3-pyrimidin-5-ylphenyl)-1-methyl-5-oxo-4,5-dihydro-[H-imidazol-4-yl]-2-methoxyphenyl trifluoromethanesulfonate 0.5 acetate], which IC50 is on record?
**A.** 59 nM

**Q.** `CN1C(=O)C(c2cccc(OS(C)(=O)=O)c2)(c2ccc(F)c(-c3cccnc3F)c2)N=C1N` (centres unmarked) [Example 88, 3-{2-Amino-4-[4-fluoro-3-(2-fluoropyridin-3-yl)phenyl]-1-methyl-5-oxo-4,5-dihydro-1H-imidazol-4-yl}phenylmethanesulfonate] was tested. Which IC50 did it give?
**A.** 234 nM

**Q.** For `CCc1cc(C2(c3ccc(F)c(-c4cc(OC)cc(OS(C)(=O)=O)c4)c3)N=C(N)N(C)C2=O)cc(CC)n1` (centres unmarked) [Example 209, 5′-[2-Amino-4-(2,6-diethylpyridin-4-yl)-1-methyl-5-oxo-4,5-dihydro-1H-imidazol-4-yl]-2′-fluoro-5-methoxybiphenyl-3-yl methanesulfonate hydrochloride], which IC50 is on record?
**A.** 99 nM

**Q.** With `CN1C(=O)C(c2cccc(OS(=O)(=O)c3ccccn3)c2)(c2ccc(F)c(-c3cncnc3)c2)N=C1N` (centres unmarked) [Example 237, 3-[2-Amino-4-(4-fluoro-3-pyrimidin-5-ylphenyl)-1-methyl-5-oxo-4,5-dihydro-1H-imidazol-4-yl]phenyl pyridine-2-sulfonate] as the molecule, how does the IC50 read?
**A.** 124 nM

**Q.** `CN1C(=O)C(c2cccc(OS(=O)(=O)c3c(F)cccc3F)c2)(c2ccc(F)c(-c3cncnc3)c2)N=C1N` (centres unmarked) [Example 236, 3-[2-Amino-4-(4-fluoro-3-pyrimidin-5-ylphenyl)-1-methyl-5-oxo-4,5-dihydro-1H-imidazol-4-yl]phenyl 2,6-difluorobenzenesulfonate] was tested. Which IC50 did it give?
**A.** 65 nM
